# Measurements published in PubChem BioAssay (NCI).
#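 A five-concentration, 48-hour dose response in 96-well plates underlies each endpoint, interpolated linearly between surrounding concentrations. GI50: concentration for 50% inhibition of growth. TGI is the concentration that stops growth completely.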
# Assays:
# Experiment in all cases: DTP human tumour cell line panel, 48 h
# SK-OV-3 ovarian = system: SK-OV-3 ovarian
# HCT-116 colon = system: HCT-116 colon
# HOP-62 NSCLC = system: HOP-62 NSCLC
# 786-0 renal = system: 786-0 renal
# MDA-MB-231 breast = system: MDA-MB-231 breast
# CCRF-CEM leukemia = system: CCRF-CEM leukemia
# BT-549 breast = system: BT-549 breast
# HCC-2998 colon = system: HCC-2998 colon
# K-562 leukemia = system: K-562 leukemia
# OVCAR-4 ovarian = system: OVCAR-4 ovarian
# HT29 colon = system: HT29 colon
# M14 melanoma = system: M14 melanoma
# MOLT-4 leukemia = system: MOLT-4 leukemia
# OVCAR-8 ovarian = system: OVCAR-8 ovarian
# MDA-MB-435 = system: MDA-MB-435
# MCF7 breast = system: MCF7 breast
# HCT-15 colon = system: HCT-15 colon
# ACHN renal = system: ACHN renal
# SF-295 CNS = system: SF-295 CNS
# SN12C renal = system: SN12C renal
# A549 NSCLC = system: A549 NSCLC
# HS 578T breast = system: HS 578T breast
# DU-145 prostate = system: DU-145 prostate
# NCI/ADR-RES ovarian = system: NCI/ADR-RES ovarian
# MALME-3M melanoma = system: MALME-3M melanoma
# SNB-19 CNS = system: SNB-19 CNS
# TK-10 renal = system: TK-10 renal
# T-47D breast = system: T-47D breast
# SK-MEL-28 melanoma = system: SK-MEL-28 melanoma
# U251 CNS = system: U251 CNS
# PC-3 prostate = system: PC-3 prostate
# SF-268 CNS = system: SF-268 CNS
# SW-620 colon = system: SW-620 colon
# UACC-257 melanoma = system: UACC-257 melanoma
# SNB-75 CNS = system: SNB-75 CNS
# KM12 colon = system: KM12 colon
# COLO 205 colon = system: COLO 205 colon
# A498 renal = system: A498 renal
# RPMI-8226 leukemia = system: RPMI-8226 leukemia
# OVCAR-3 ovarian = system: OVCAR-3 ovarian
# RXF 393 renal = system: RXF 393 renal
# SR leukemia = system: SR leukemia
# EKVX NSCLC = system: EKVX NSCLC
# NCI-H522 lung = system: NCI-H522 lung
# SK-MEL-2 melanoma = system: SK-MEL-2 melanoma
# HL-60(TB) leukemia = system: HL-60(TB) leukemia
# UO-31 renal = system: UO-31 renal
# IGROV1 ovarian = system: IGROV1 ovarian
# NCI-H226 lung = system: NCI-H226 lung
# NCI-H460 lung = system: NCI-H460 lung
# SF-539 CNS = system: SF-539 CNS
# UACC-62 melanoma = system: UACC-62 melanoma
# SK-MEL-5 melanoma = system: SK-MEL-5 melanoma
# OVCAR-5 ovarian = system: OVCAR-5 ovarian
# CAKI-1 renal = system: CAKI-1 renal
# HOP-92 NSCLC = system: HOP-92 NSCLC
structure (smiles),measurement,setting,value
Fc1ccc(-c2nc(C(Cl)Cl)nc3cc(-c4ccccc4)nn23)cc1,GI50,SK-OV-3 ovarian,10.7 µM
same,TGI,SK-OV-3 ovarian,> 100 µM
same,GI50,HCT-116 colon,38.5 µM
same,TGI,HCT-116 colon,> 100 µM
same,GI50,HOP-62 NSCLC,12.1 µM
same,TGI,HOP-62 NSCLC,> 100 µM
same,GI50,786-0 renal,> 100 µM
same,TGI,786-0 renal,> 100 µM
same,GI50,MDA-MB-231 breast,35.4 µM
same,TGI,MDA-MB-231 breast,> 100 µM
same,GI50,CCRF-CEM leukemia,> 100 µM
same,TGI,CCRF-CEM leukemia,> 100 µM
same,GI50,BT-549 breast,> 100 µM
same,TGI,BT-549 breast,> 100 µM
same,GI50,HCC-2998 colon,2.27 µM
same,TGI,HCC-2998 colon,6.21 µM
same,GI50,K-562 leukemia,15.9 µM
same,TGI,K-562 leukemia,> 100 µM
same,GI50,OVCAR-4 ovarian,7.21 µM
same,TGI,OVCAR-4 ovarian,> 100 µM
same,GI50,HT29 colon,3.92 µM
same,TGI,HT29 colon,> 100 µM
same,GI50,M14 melanoma,> 100 µM
same,TGI,M14 melanoma,> 100 µM
same,GI50,MOLT-4 leukemia,7.81 µM
same,TGI,MOLT-4 leukemia,> 100 µM
same,GI50,OVCAR-8 ovarian,7.33 µM
same,TGI,OVCAR-8 ovarian,> 100 µM
same,GI50,MDA-MB-435,> 100 µM
same,TGI,MDA-MB-435,> 100 µM
same,GI50,MCF7 breast,7.36 µM
same,TGI,MCF7 breast,> 100 µM
same,GI50,HCT-15 colon,4.64 µM
same,TGI,HCT-15 colon,> 100 µM
same,GI50,ACHN renal,3.58 µM
same,TGI,ACHN renal,> 100 µM
same,GI50,SF-295 CNS,28.2 µM
same,TGI,SF-295 CNS,> 100 µM
same,GI50,SN12C renal,> 100 µM
same,TGI,SN12C renal,> 100 µM
same,GI50,A549 NSCLC,3.72 µM
same,TGI,A549 NSCLC,33.8 µM
same,GI50,HS 578T breast,> 100 µM
same,TGI,HS 578T breast,> 100 µM
same,GI50,DU-145 prostate,2.46 µM
same,TGI,DU-145 prostate,6.55 µM
same,GI50,NCI/ADR-RES ovarian,6.48 µM
same,TGI,NCI/ADR-RES ovarian,> 100 µM
same,GI50,MALME-3M melanoma,> 100 µM
same,TGI,MALME-3M melanoma,> 100 µM
same,GI50,SNB-19 CNS,10.5 µM
same,TGI,SNB-19 CNS,> 100 µM
same,GI50,TK-10 renal,> 100 µM
same,TGI,TK-10 renal,> 100 µM
same,GI50,T-47D breast,> 100 µM
same,TGI,T-47D breast,> 100 µM
same,GI50,SK-MEL-28 melanoma,> 100 µM
same,TGI,SK-MEL-28 melanoma,> 100 µM
same,GI50,U251 CNS,5.79 µM
same,TGI,U251 CNS,> 100 µM
same,GI50,PC-3 prostate,> 100 µM
same,TGI,PC-3 prostate,> 100 µM
same,GI50,SF-268 CNS,> 100 µM
same,TGI,SF-268 CNS,> 100 µM
same,GI50,SW-620 colon,5.05 µM
same,TGI,SW-620 colon,> 100 µM
same,GI50,UACC-257 melanoma,> 100 µM
same,TGI,UACC-257 melanoma,> 100 µM
same,GI50,SNB-75 CNS,> 100 µM
same,TGI,SNB-75 CNS,> 100 µM
same,GI50,KM12 colon,15.9 µM
same,TGI,KM12 colon,> 100 µM
same,GI50,COLO 205 colon,3.67 µM
same,TGI,COLO 205 colon,21.9 µM
same,GI50,A498 renal,> 100 µM
same,TGI,A498 renal,> 100 µM
same,GI50,RPMI-8226 leukemia,> 100 µM
same,TGI,RPMI-8226 leukemia,> 100 µM
same,GI50,OVCAR-3 ovarian,6.13 µM
same,TGI,OVCAR-3 ovarian,> 100 µM
same,GI50,RXF 393 renal,3.79 µM
same,TGI,RXF 393 renal,18.5 µM
same,GI50,SR leukemia,5.23 µM
same,TGI,SR leukemia,> 100 µM
same,GI50,EKVX NSCLC,7.79 µM
same,TGI,EKVX NSCLC,> 100 µM
same,GI50,NCI-H522 lung,7.36 µM
same,TGI,NCI-H522 lung,> 100 µM
same,GI50,SK-MEL-2 melanoma,> 100 µM
same,TGI,SK-MEL-2 melanoma,> 100 µM
same,GI50,HL-60(TB) leukemia,3.79 µM
same,TGI,HL-60(TB) leukemia,> 100 µM
same,GI50,UO-31 renal,> 100 µM
same,TGI,UO-31 renal,> 100 µM
same,GI50,IGROV1 ovarian,> 100 µM
same,TGI,IGROV1 ovarian,> 100 µM
same,GI50,NCI-H226 lung,> 100 µM
same,TGI,NCI-H226 lung,> 100 µM
same,GI50,NCI-H460 lung,3.63 µM
same,TGI,NCI-H460 lung,> 100 µM
same,GI50,SF-539 CNS,> 100 µM
same,TGI,SF-539 CNS,> 100 µM
same,GI50,UACC-62 melanoma,> 100 µM
same,TGI,UACC-62 melanoma,> 100 µM
same,GI50,SK-MEL-5 melanoma,> 100 µM
same,TGI,SK-MEL-5 melanoma,> 100 µM
same,GI50,OVCAR-5 ovarian,22.3 µM
same,TGI,OVCAR-5 ovarian,> 100 µM
same,GI50,CAKI-1 renal,16 µM
same,TGI,CAKI-1 renal,> 100 µM
same,GI50,HOP-92 NSCLC,> 100 µM
same,TGI,HOP-92 NSCLC,> 100 µM
